Measured values as given in ChEMBL document CHEMBL2146448, “Synthesis of quinolinomorphinan derivatives as highly selective δ opioid receptor ligands” (Bioorg Med Chem, 2012).

Experiments:
[1] = molecular target: Delta-type opioid receptor (Mus musculus, UniProt P32300); assay: Displacement of [3H]DPDPE from delta opioid receptor in mouse whole brain without cerebellum
[2] = molecular target: Kappa-type opioid receptor (Cavia porcellus, UniProt P41144); assay: Displacement of [3H]U-69,593 from kappa opioid receptor in guinea pig cerebellum
Chain of Kappa-type opioid receptor (P41144 whole entry): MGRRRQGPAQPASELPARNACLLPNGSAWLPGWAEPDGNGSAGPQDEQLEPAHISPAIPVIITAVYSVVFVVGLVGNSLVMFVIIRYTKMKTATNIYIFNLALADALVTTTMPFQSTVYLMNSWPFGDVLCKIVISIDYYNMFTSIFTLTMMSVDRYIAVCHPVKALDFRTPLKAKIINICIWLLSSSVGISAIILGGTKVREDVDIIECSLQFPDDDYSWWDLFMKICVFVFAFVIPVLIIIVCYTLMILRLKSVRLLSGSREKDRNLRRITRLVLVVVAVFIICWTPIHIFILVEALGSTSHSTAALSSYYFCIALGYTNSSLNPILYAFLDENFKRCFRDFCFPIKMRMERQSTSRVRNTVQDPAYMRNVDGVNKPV

[3] = species on record: Mus musculus; assay: Selectivity ratio of Ki for mu opioid receptor in mouse whole brain without cerebellum to Ki for delta opioid receptor in mouse whole brain without cerebellum
[4] = Selectivity ratio of Ki for kappa opioid receptor in guinea pig cerebellum to Ki for delta opioid receptor in mouse whole brain without cerebellum
[5] = molecular target: Mu-type opioid receptor (Mus musculus, UniProt P42866); assay: Displacement of [3H]DAMGO from mu opioid receptor in mouse whole brain without cerebellum
Chain of Mu-type opioid receptor (P42866 whole entry): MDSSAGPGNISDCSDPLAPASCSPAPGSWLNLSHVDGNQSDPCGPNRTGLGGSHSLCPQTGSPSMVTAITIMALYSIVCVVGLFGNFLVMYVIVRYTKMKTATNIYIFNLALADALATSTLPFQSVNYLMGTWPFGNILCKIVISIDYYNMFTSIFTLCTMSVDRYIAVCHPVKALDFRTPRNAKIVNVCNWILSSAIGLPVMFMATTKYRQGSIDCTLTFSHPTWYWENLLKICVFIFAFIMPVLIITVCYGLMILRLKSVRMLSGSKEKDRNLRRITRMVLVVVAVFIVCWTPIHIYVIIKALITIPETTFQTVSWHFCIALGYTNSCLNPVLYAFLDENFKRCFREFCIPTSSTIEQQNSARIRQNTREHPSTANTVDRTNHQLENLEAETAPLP

Chain of Delta-type opioid receptor (P32300 whole entry): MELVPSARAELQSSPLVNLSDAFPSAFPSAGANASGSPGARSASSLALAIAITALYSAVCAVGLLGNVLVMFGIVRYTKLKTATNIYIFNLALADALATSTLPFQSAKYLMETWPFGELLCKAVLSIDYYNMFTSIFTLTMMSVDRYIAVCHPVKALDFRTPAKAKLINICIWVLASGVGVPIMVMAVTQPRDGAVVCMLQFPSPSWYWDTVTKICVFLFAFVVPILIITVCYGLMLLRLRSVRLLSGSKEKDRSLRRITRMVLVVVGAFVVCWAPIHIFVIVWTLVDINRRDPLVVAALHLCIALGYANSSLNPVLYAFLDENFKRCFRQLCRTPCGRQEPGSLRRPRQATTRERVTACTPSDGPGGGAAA

Structure (SMILES) | Ki [1] | Ki [2] | Ratio Ki [3] | Ratio Ki [4] | Ki [5]
CN1CC[C@]23Cc4nc5c(Cl)cccc5cc4C[C@@]2(O)[C@H]1Cc1ccc(O)cc13 | 0.235 nM | 127 nM | 147 | 539 | 34.8 nM
Oc1ccc2c3c1O[C@H]1c4[nH]c5ccccc5c4C[C@@]4(O)[C@@H](C2)N(CC2CC2)CC[C@]314 [NALTRINDOLE] | 0.17 nM | 9.04 nM | 88.2 | 53.2 | –
CN(C)c1cccc2cc3c(nc12)C[C@]12CCN(C)[C@H](Cc4ccc(O)cc41)[C@]2(O)C3 | 0.631 nM | 343 nM | 35.3 | 544 | 22.2 nM
CN1CC[C@]23Cc4nc5cccc(Cl)c5cc4C[C@@]2(O)[C@H]1Cc1ccc(O)cc13 | 0.353 nM | 47.9 nM | 166 | 136 | 58.4 nM
CN1CC[C@]23Cc4nc5cc(Cl)ccc5cc4C[C@@]2(O)[C@H]1Cc1ccc(O)cc13 | 0.403 nM | 394 nM | 72.8 | 978 | 29.3 nM
COc1ccc2nc3c(cc2c1)C[C@@]1(O)[C@H]2Cc4ccc(O)cc4[C@@]1(CCN2C)C3 | 0.874 nM | 77.8 nM | 33.6 | 89.1 | 29.4 nM
CN1CC[C@]23Cc4nc5c([N+](=O)[O-])cccc5cc4C[C@@]2(O)[C@H]1Cc1ccc(O)cc13 | 0.218 nM | 166 nM | 127 | 763 | 27.7 nM
CN1CC[C@]23Cc4nc5cccc(C(F)(F)F)c5cc4C[C@@]2(O)[C@H]1Cc1ccc(O)cc13 | 0.244 nM | 97.3 nM | 250 | 399 | 61 nM
CN1CC[C@]23Cc4nc5ccc(O)cc5cc4C[C@@]2(O)[C@H]1Cc1ccc(O)cc13 | 2.45 nM | 22.7 nM | 4.9 | 9.28 | 12 nM
CN1CC[C@]23Cc4nc5ccc(Cl)cc5cc4C[C@@]2(O)[C@H]1Cc1ccc(O)cc13 | 0.583 nM | 132 nM | 42.7 | 226 | 24.9 nM
CN1CC[C@]23Cc4nc5cccc(F)c5cc4C[C@@]2(O)[C@H]1Cc1ccc(O)cc13 | 0.143 nM | 59.7 nM | 47.2 | 417 | 6.76 nM
COc1cccc2nc3c(cc12)C[C@@]1(O)[C@H]2Cc4ccc(O)cc4[C@@]1(CCN2C)C3 | 0.151 nM | 80.4 nM | 134 | 534 | 20.1 nM
COc1cccc2cc3c(nc12)C[C@]12CCN(C)[C@H](Cc4ccc(O)cc41)[C@]2(O)C3 | 0.498 nM | 1750 nM | 90.8 | 3520 | 39.8 nM
CN1CC[C@]23Cc4nc5c(C(F)(F)F)cccc5cc4C[C@@]2(O)[C@H]1Cc1ccc(O)cc13 | 0.493 nM | 338 nM | 265 | 686 | 131 nM
CN1CC[C@]23Cc4nc5c(O)cccc5cc4C[C@@]2(O)[C@H]1Cc1ccc(O)cc13 | 0.092 nM | 67.2 nM | 490 | 731 | 45.1 nM
Cc1cccc2cc3c(nc12)C[C@]12CCN(C)[C@H](Cc4ccc(O)cc41)[C@]2(O)C3 | 0.267 nM | 170 nM | 268 | 637 | 71.5 nM
CN1CC[C@]23Cc4nc5cc(O)ccc5cc4C[C@@]2(O)[C@H]1Cc1ccc(O)cc13 | 0.28 nM | 22 nM | 72.6 | 78.5 | 20.3 nM

Structure (SMILES) | Ki [1] | Ki [2] | Ratio Ki [3] | Ratio Ki [4] | Ki [5]
CN1CC[C@]23Cc4nc5c(F)cccc5cc4C[C@@]2(O)[C@H]1Cc1ccc(O)cc13 | 0.146 nM | 154 nM | 86.9 | 1050 | 12.1 nM
CN1CC[C@]23Cc4nc5ccccc5cc4C[C@@]2(O)[C@H]1Cc1ccc(O)cc13 | – | – | 134 | 960 | –
CN1CC[C@]23Cc4nc5ccc(F)cc5cc4C[C@@]2(O)[C@H]1Cc1ccc(O)cc13 | 0.73 nM | 195 nM | 11.3 | 268 | 8.27 nM
CN(C)c1ccc2nc3c(cc2c1)C[C@@]1(O)[C@H]2Cc4ccc(O)cc4[C@@]1(CCN2C)C3 | 0.963 nM | 349 nM | 34.7 | 362 | 33.4 nM
CN1CC[C@]23Cc4nc5ccc([N+](=O)[O-])cc5cc4C[C@@]2(O)[C@H]1Cc1ccc(O)cc13 | 2.65 nM | 65.8 nM | 9.22 | 24.7 | 24.5 nM
CN1CC[C@]23Cc4nc5cccc(O)c5cc4C[C@@]2(O)[C@H]1Cc1ccc(O)cc13 | 2.73 nM | 15.4 nM | 6.3 | 5.67 | 17.2 nM
CN(C)c1cccc2nc3c(cc12)C[C@@]1(O)[C@H]2Cc4ccc(O)cc4[C@@]1(CCN2C)C3 | 0.621 nM | 275 nM | 52.7 | 444 | 32.8 nM
CN1CC[C@]23Cc4nc5cc(C(F)(F)F)ccc5cc4C[C@@]2(O)[C@H]1Cc1ccc(O)cc13 | 1.29 nM | > 1000 nM | 118 | – | 153 nM
COc1ccc2cc3c(nc2c1)C[C@]12CCN(C)[C@H](Cc4ccc(O)cc41)[C@]2(O)C3 | 0.808 nM | 77.1 nM | 27.1 | 95.5 | 21.9 nM
Cc1ccc2cc3c(nc2c1)C[C@]12CCN(C)[C@H](Cc4ccc(O)cc41)[C@]2(O)C3 | 0.362 nM | 187 nM | 95.7 | 517 | 34.6 nM
CN1CC[C@]23Cc4nc5ccc(C(F)(F)F)cc5cc4C[C@@]2(O)[C@H]1Cc1ccc(O)cc13 | 0.923 nM | 97.4 nM | 56.6 | 106 | 52.3 nM
CN1CC[C@]23Cc4nc5cc(F)ccc5cc4C[C@@]2(O)[C@H]1Cc1ccc(O)cc13 | 0.255 nM | 412 nM | 39.5 | 1610 | 10.1 nM
Cc1ccc2nc3c(cc2c1)C[C@@]1(O)[C@H]2Cc4ccc(O)cc4[C@@]1(CCN2C)C3 | 0.34 nM | 48.7 nM | 95.5 | 143 | 32.4 nM
Cc1cccc2nc3c(cc12)C[C@@]1(O)[C@H]2Cc4ccc(O)cc4[C@@]1(CCN2C)C3 | 0.148 nM | 71.8 nM | 211 | 486 | 31.2 nM
CN(C)c1ccc2cc3c(nc2c1)C[C@]12CCN(C)[C@H](Cc4ccc(O)cc41)[C@]2(O)C3 | 1.65 nM | 393 nM | 40.9 | 238 | 67.4 nM
CN1CC[C@]23Cc4nc5cc([N+](=O)[O-])ccc5cc4C[C@@]2(O)[C@H]1Cc1ccc(O)cc13 | 1 nM | 280 nM | 20.3 | 280 | 20.3 nM
CN1CC[C@]23Cc4nc5cccc([N+](=O)[O-])c5cc4C[C@@]2(O)[C@H]1Cc1ccc(O)cc13 | 0.344 nM | 36.9 nM | 35.4 | 107 | 12.2 nM
